Source: ChEMBL document CHEMBL5154898, “Discovery and Optimization of 5-Hydroxy-Diclofenac toward a New Class of Ligands with Nanomolar Affinity for the CaMKIIα Hub Domain” (J Med Chem, 2022)

Columns and labels:
[1] = biological target: T1, Calcium/calmodulin-dependent protein kinase type II subunit alpha (Rattus norvegicus, UniProt P11275); assay: Displacement of [3H]NCS-382 from CaMK2alpha in rat brain cerebral cortex membrane homogenates assessed as inhibition constant measured after 60 mins by TopCount scintillation counting method; type: cell membranes
T1 sequence (P11275 whole entry): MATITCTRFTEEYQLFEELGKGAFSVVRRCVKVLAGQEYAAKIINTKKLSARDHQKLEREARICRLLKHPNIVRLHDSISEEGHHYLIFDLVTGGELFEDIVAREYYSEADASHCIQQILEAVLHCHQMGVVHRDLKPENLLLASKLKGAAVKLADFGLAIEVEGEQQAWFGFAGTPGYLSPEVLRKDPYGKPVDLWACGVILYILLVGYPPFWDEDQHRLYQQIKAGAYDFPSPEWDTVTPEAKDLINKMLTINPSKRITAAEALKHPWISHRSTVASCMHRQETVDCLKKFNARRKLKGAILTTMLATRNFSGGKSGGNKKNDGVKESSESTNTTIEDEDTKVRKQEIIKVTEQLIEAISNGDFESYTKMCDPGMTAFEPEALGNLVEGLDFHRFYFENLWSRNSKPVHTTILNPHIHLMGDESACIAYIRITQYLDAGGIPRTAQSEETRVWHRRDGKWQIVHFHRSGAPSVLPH

[2] = biological target: Calcium/calmodulin-dependent protein kinase type II subunit alpha (Homo sapiens, UniProt Q9UQM7); assay: Inhibition of [3H]NCS-382 binding to CaMK2alpha (unknown origin)
Calcium/calmodulin-dependent protein kinase type II subunit alpha (Homo sapiens, UniProt Q9UQM7), sequence (Q9UQM7 whole entry): as the sequence (P11275 whole entry) above, with N324S counted along it

[3] = biological target: T1, Calcium/calmodulin-dependent protein kinase type II subunit alpha; assay: Inhibition of [3H]NCS-382 binding to CaMK2alpha in rat cerebrocortical membranes; type: cell membranes, Cerebral cortex, Membrane
[4] = biological target: Calcium/calmodulin-dependent protein kinase type II subunit alpha (Rattus norvegicus) (UniProt P11275); assay: Inhibition of [3H]NCS-382 binding to CaMK2alpha in rat brain cerebral cortex membrane homogenates at 100 uM measured after 60 mins by TopCount scintillation counting method relative to control; type: cell membranes
Calcium/calmodulin-dependent protein kinase type II subunit alpha (Rattus norvegicus), sequence (P11275 whole entry): as the sequence (P11275 whole entry) above

[5] = biological target: T1, Calcium/calmodulin-dependent protein kinase type II subunit alpha; assay: Displacement of [3H]HOCPCA from CaMK2alpha in rat brain cerebral cortex membrane homogenates assessed as inhibition constant measured after 60 mins by TopCount scintillation counting method; type: cell membranes
[6] = Plasma concentration in C57BL/6J mouse at 10 mg/kg , po measured after 30 mins by UPLC based tandem mass spectrometry analysis; type: ADME, organism-based
[7] = Brain concentration in C57BL/6J mouse at 10 mg/kg , po measured after 30 mins by UPLC based tandem mass spectrometry analysis; type: ADME, organism-based; settings: read-out: Ct
[8] = Ratio of drug concentration in brain to plasma in C57BL/6J mouse at 10 mg/kg , po measured after 30 mins by UPLC based tandem mass spectrometry analysis; type: ADME, organism-based; settings: read-out: BPR
[9] = Chemical stability of compound in PBS buffer at pH 7.4 assessed as cyclized intermediate formation at 25 to 37 degreeC incubated for 7 days by HPLC based LC-MS analysis; type: physicochemical; settings: pH 7.4, 168 h, time 7 day
[10] = Chemical stability of compound in PBS buffer at pH 7.4 assessed as oxidized intermediate formation at 25 to 37 degreeC incubated for 7 days by HPLC based LC-MS analysis; type: physicochemical; settings: pH 7.4, 168 h, time 7 day
MDR1 (P-gp) [11] = assay: Apparent permeability across apical to basolateral side in dog MDCKII-MDR1 cells at 3 uM measured after 60 to 90 mins by LC-MS/MS analysis; type: ADME, cell-based, Canis lupus familiaris; settings: MDCK-MDR1, time 60-90 min
[12] = Plasma concentration in C57BL/6J mouse at 5 mg/kg , sc measured after 30 mins by UPLC based tandem mass spectrometry analysis; type: ADME, organism-based
[13] = Chemical stability of compound in PBS buffer at pH 7.4 assessed as half life at 25 degreeC incubated for 7 days by HPLC based LC-MS analysis; type: physicochemical; settings: time 7 day
[14] = Chemical stability of compound in PBS buffer at pH 7.4 assessed as half life at 37 degreeC incubated for 7 days by HPLC based LC-MS analysis; type: physicochemical; settings: time 7 day
[15] = Brain concentration in C57BL/6J mouse at 5 mg/kg , sc measured after 30 mins by UPLC based tandem mass spectrometry analysis; type: ADME, organism-based; settings: read-out: Ct
[16] = Ratio of drug concentration in brain to plasma in C57BL/6J mouse at 5 mg/kg , sc measured after 30 mins by UPLC based tandem mass spectrometry analysis; type: ADME, organism-based; settings: read-out: BPR
MDR1 (P-gp) [17] = assay: Apparent permeability across basolateral to apical side in dog MDCKII-MDR1 cells at 3 uM measured after 60 to 90 mins by LC-MS/MS analysis; type: ADME, cell-based, Canis lupus familiaris; settings: MDCK-MDR1, time 60-90 min
BCRP [18] = assay: Apparent permeability across apical to basolateral side in dog MDCK-II cells expressing BCRP at 3 uM measured after 60 to 90 mins by LC-MS/MS analysis; type: ADME, cell-based, Canis lupus familiaris; settings: time 60-90 min
BCRP [19] = assay: Apparent permeability across basolateral to apical side in dog MDCK-II cells expressing BCRP at 3 uM measured after 60 to 90 mins by LC-MS/MS analysis; type: ADME, cell-based, Canis lupus familiaris; settings: time 60-90 min
BCRP [20] = assay: Apparent permeability across apical to basolateral side in dog MDCK-II cells expressing BCRP at 3 uM preincubated with BCRP inhibitor, Ko 143 for 15 to 30 mins followed by compound addition and measured after 60 to 90 mins by LC-MS/MS analysis; type: ADME, cell-based, Canis lupus familiaris; settings: with Ko 143 (BCRP inhibitor; concentration not stated), time 60-90 min
BCRP [21] = assay: Apparent permeability across basolateral to apical side in dog MDCK-II cells expressing BCRP at 3 uM preincubated with BCRP inhibitor, Ko 143 for 15 to 30 mins followed by compound addition and measured after 60 to 90 mins by LC-MS/MS analysis; type: ADME, cell-based, Canis lupus familiaris; settings: with Ko 143 (BCRP inhibitor; concentration not stated), time 60-90 min
MDR1 (P-gp) [22] = assay: Apparent permeability across apical to basolateral side in dog MDCKII-MDR1 cells at 3 uM preincubated with P-gp inhibitor elacridar for 15 to 30 mins followed by compound addition and measured after 60 to 90 mins by LC-MS/MS analysis; type: ADME, cell-based, Canis lupus familiaris; settings: MDCK-MDR1, with elacridar (P-gp inhibitor; concentration not stated), time 60-90 min
MDR1 (P-gp) [23] = assay: Apparent permeability across basolateral to apical side in dog MDCKII-MDR1 cells at 3 uM preincubated with P-gp inhibitor elacridar for 15 to 30 mins followed by compound addition and measured after 60 to 90 mins by LC-MS/MS analysis; type: ADME, cell-based, Canis lupus familiaris; settings: MDCK-MDR1, with elacridar (P-gp inhibitor; concentration not stated), time 60-90 min

In the case of `O=c1[nH]nc(Cc2cc(O)ccc2Oc2ccccc2Cl)[nH]1`, the Ki [1] is reported as 420 nM.
Work on `O=C(O)Cc1ccccc1Nc1c(Cl)cc(O)cc1Cl` [4'-HYDROXY-DICLOFENAC] yielded a Ki [2] of 2100 nM.
Compound `O=c1[nH]c(Cc2cc(O)ccc2Oc2ccccc2Cl)no1` has a Ki [1] of 1200 nM.
Work on `O=C(O)Cc1ccc(O)cc1Cc1ccccc1` yielded a Ki [1] of 500 nM.
With `O=C(O)/C=C/c1ccc(O)cc1` [COUMARIC ACID] the Ki [2] was > 100000 nM.
Compound `O=C(O)Cc1cc(O)ccc1Oc1c(Cl)cccc1Cl` has a Ki [1] of 70 nM.
For `O=C(O)Cc1cc(O)ccc1Oc1ccccc1O`, the Ki [1] was 33 nM.
Compound `O=C(O)Cc1ccccc1Nc1c(Cl)cccc1Cl` [DICLOFENAC] has a Ki [1] of 5100 nM.
For `O=C(O)Cc1cccc(O)c1` [3-Hydroxyphenylacetate], the IC50 [3] was 130 nM and the Ki [3] was 126 nM.
In the case of `NC(=O)Cc1cc(O)ccc1Oc1ccccc1Cl`, the Ki [1] is reported as > 100000 nM and the inhibition [4] is reported as < 50%.
For `O=C(O)CCCO` [OXYBATE], the Ki [2] was 4300 nM.
Work on `O=C(O)C(F)(F)c1cc(O)ccc1Oc1ccccc1Cl` yielded a Ki [1] of 1200 nM.
Compound `Oc1ccc(Oc2ccccc2Cl)c(-c2nnn[nH]2)c1` has a Ki [5] of 40000 nM and a Ki [1] of 25000 nM.
`O=C(O)Cc1ccc(O)cc1` showed a Ki [2] of 2200 nM.
`O=C(O)Cc1ccccc1Oc1ccc(O)cc1CC(=O)O` gave a Ki [1] of 830 nM.
Compound `O=C(O)Cc1cc(O)ccc1Oc1ccc([N+](=O)[O-])cc1Cl` has a Ki [1] of 14 nM.
In the case of `Oc1ccc(Oc2ccccc2Cl)c(Cc2cc(O)no2)c1`, the Ki [1] is reported as 20000 nM.
`O=C(O)Cc1ccc(O)cc1Oc1ccccc1` gave a Ki [1] of 47 nM.
In the case of `O=C(O)/C=C/c1ccccc1` [CINNAMIC ACID], the Ki [2] is reported as > 100000 nM.
In the case of `O=C1Cc2cc(O)ccc2N1c1c(Cl)cccc1Cl`, the Ki [1] is reported as > 100000 nM and the inhibition [4] is reported as < 50%.
For `O=C(O)Cc1ccc(O)cc1Oc1c(Cl)cccc1Cl`, the Ki [1] was 31 nM.
Work on `Oc1ccc(Oc2ccccc2Cl)c(Cc2nnn[nH]2)c1` yielded a Ki [5] of 94 nM, a Ki [1] of 70 nM and a concentration at 0.5 h [6] of 1970 ng/mL. It also gave a concentration at 0.5 h [7] of 22 ng/mL and a Kp at 0.5 h [8] of 0.012.
For `O=C(O)Cc1ccc(O)cc1Oc1ccccc1Cl`, the Ki [5] was 53 nM, the Ki [1] was 27 nM and the concentration at 0.5 h [6] was 29400 ng/mL. The Stability [9] was “Stable”, the Stability [10] was “Stable” and the concentration at 0.5 h [7] was 308 ng/mL. The Kp at 0.5 h [8] was 0.011.
In the case of `O=C(O)Cc1ccccc1O`, the IC50 [3] is reported as 2100 nM and the Ki [3] is reported as 2000 nM.
Compound `O=C(O)Cc1ccc(O)cc1Nc1c(Cl)cccc1Cl` has a Papp A→B at 3 µM (MDR1 (P-gp) [11]) of 4.66 ×10⁻⁶ cm/s, a concentration at 0.5 h [12] of 6790 ng/mL and a half-life [13] of 10 h. For the same compound, the half-life [14] was 24 h, the concentration at 0.5 h [15] was 88 ng/mL and the Kp at 0.5 h [16] was 0.013. For the same compound, the Papp B→A at 3 µM (MDR1 (P-gp) [17]) was 3.73 ×10⁻⁶ cm/s, the Papp A→B at 3 µM (BCRP [18]) was 1.25 ×10⁻⁶ cm/s and the Papp B→A at 3 µM (BCRP [19]) was 19.1 ×10⁻⁶ cm/s. The Papp A→B at 3 µM (BCRP [20]) was 3.05 ×10⁻⁶ cm/s, the Papp B→A at 3 µM (BCRP [21]) was 4.03 ×10⁻⁶ cm/s and the Papp A→B at 3 µM (MDR1 (P-gp) [22]) was 4.15 ×10⁻⁶ cm/s. It also gave a Papp B→A at 3 µM (MDR1 (P-gp) [23]) of 2.71 ×10⁻⁶ cm/s.
`O=C(O)Cc1ccc(O)cc1Sc1ccccc1` showed a Ki [1] of 77 nM.
